Measured values published in patent publication US8440660B2 (Santen Pharmaceutical Co., Ltd., priority 2006, dated 2013).

Each compound was assayed against T1, Glucocorticoid Receptor (GR) (Homo sapiens, UniProt P04150) (assay: GR receptor competitor assay by fluorescence polarization (Invitrogen GR competitor assay kit, cat No. P2816)). Details: 20 μM test compound solution, 10 μL per well plus 5 μL 4×GS1 and 5 μL 4×GR solution; recombinant human GR; 2 to 4 hours at room temperature; a ratio of 100% or more is indicated by 100%; read-out: GR Binding ratio (%).
T1 construct: purchased Invitrogen P2816
T1 sequence (P04150 1-777): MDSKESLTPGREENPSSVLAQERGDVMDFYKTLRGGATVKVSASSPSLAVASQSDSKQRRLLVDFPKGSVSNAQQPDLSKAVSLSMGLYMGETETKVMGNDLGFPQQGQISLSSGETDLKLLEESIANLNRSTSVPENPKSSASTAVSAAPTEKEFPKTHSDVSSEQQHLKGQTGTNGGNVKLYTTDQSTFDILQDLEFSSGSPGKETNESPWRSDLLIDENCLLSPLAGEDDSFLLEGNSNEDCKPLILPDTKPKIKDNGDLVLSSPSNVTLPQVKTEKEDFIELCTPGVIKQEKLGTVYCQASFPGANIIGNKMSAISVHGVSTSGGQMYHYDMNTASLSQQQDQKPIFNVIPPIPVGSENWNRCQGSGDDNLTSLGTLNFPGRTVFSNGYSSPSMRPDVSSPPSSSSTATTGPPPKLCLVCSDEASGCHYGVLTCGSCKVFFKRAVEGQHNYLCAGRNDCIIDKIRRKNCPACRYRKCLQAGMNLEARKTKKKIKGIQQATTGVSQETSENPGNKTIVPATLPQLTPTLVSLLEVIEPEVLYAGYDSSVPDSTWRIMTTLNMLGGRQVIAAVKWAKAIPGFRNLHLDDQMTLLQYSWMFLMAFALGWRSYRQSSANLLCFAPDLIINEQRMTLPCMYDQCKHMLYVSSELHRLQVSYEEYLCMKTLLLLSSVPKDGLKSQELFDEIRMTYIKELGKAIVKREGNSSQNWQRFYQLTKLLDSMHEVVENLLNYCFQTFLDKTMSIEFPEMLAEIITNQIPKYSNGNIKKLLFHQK
Method in brief: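 Recombinant human GR with fluorescent ligand Fluormone GS1 in pH 7.4 phosphate buffer with molybdate, EDTA, DTT, stabilizing peptide and 2% DMSO; compound added as 20 μM solution (pre-mix). FP read after 2–4 h at room temperature in the dark. Binding ratio (%) normalized between buffer and dexamethasone controls.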
Work on `COc1ccc([N+](=O)[O-])cc1OCc1c(-c2ccc(OS(=O)(=O)C(C)C)cc2OC)ccc2c1C(C)=CC(C)(C)N2` [Compound 4-20, 6-(4-Isopropylsulfonyloxy-2-methoxyphenyl)-5-(2-methoxy-5-nitrophenoxymethyl)-2,2,4-trimethyl-1,2-dihydroquinoline] yielded an inhibition at 10 µM of 100%. With `COc1ccc([N+](=O)[O-])cc1OCc1c(-c2ccc(OC(=O)c3ccsc3)cc2OC)ccc2c1C(C)=CC(C)(C)N2` [Compound 1-115, 5-(2-Methoxy-5-nitrophenoxymethyl)-6-[2-methoxy-4-(thiophen-3-ylcarbonyloxy)phenyl]-2,2,4-trimethyl-1,2-dihydroquinoline] the inhibition at 10 µM was 97%. Work on `COc1cc(OC(=O)CCc2ccccc2)ccc1-c1ccc2c(c1COc1cc(F)ccc1C)C(C)=CC(C)(C)N2` [Compound 1-33, 5-(5-Fluoro-2-methylphenoxymethyl)-6-[2-methoxy-4-(3-phenylpropionyloxy)phenyl]-2,2,4-trimethyl-1,2-dihydroquinoline] yielded an inhibition at 10 µM of 89%.
